# Laboratory results taken from US10487093B2, “Heterocyclic compounds, in particular 2-oxo-4,4,5,5,6,6,7,7-octahydrobenzoxazole derivatives, and their use as antibacterial compounds” (priority 2016, dated 2019).
# Read-outs that look alike come from different tables or passages of the source.
# Tests used:
# Format in all cases: cell-based
# [1] = system: strains of Finegoldia magna; experiment: MIC against anaerobes, agar dilution (CLSI), clinical isolates; conditions: Finegoldia magna, read-out: MIC
# [2] = system: strains of Prevotella bivia; experiment: as above
# [3] = system: strains of Bacteroides fragilis; experiment: as above
# [4] = system: Clostridium difficile ATCC 700057; experiment: MIC against anaerobes, agar dilution (CLSI), reference strain; conditions: Clostridioides difficile, ATCC700057, 48 h, read-out: MIC, C. difficile ATCC 700057
# [5] = system: strains of Clostridium perfringens; experiment: microbe, parasite or virus in culture
# [6] = system: strains of Propionibacterium acnes; experiment: MIC against anaerobes, agar dilution (CLSI), clinical isolates; conditions: Cutibacterium acnes
# [7] = system: strains of Prevotella melaninogenica; experiment: as above
# [8] = system: Bacteroides thetaiotaomicron ATCC 29741; experiment: microbe, parasite or virus in culture; conditions: ATCC29741, 48 h, read-out: MIC, B. thetaiotaomicron ATCC
# [9] = system: strains of Peptostreptococcus anaerobius; experiment: MIC against anaerobes, agar dilution (CLSI), clinical isolates
# [10] = system: strains of Parvimonas micra; experiment: as above
# [11] = system: strains of Bacteroides thetaiotaomicron; experiment: microbe, parasite or virus in culture
# [12] = system: Bacteroides fragilis ATCC 25285; experiment: MIC against anaerobes, agar dilution (CLSI), reference strain; conditions: ATCC25285, agar dilution, Brucella blood agar, 35° C., 48 h, anaerobic conditions, read-out: MIC, B. fragilis ATCC 25285
# [13] = system: strains of Peptoniphilus harei; experiment: MIC against anaerobes, agar dilution (CLSI), clinical isolates; conditions: Peptoniphilus harei, read-out: MIC
smiles,measurement,setting,value
"Cc1ncc([N+](=O)[O-])n1CCO [MTZ, metronidazole, reference compound]",MIC,[1]; Finegoldia magna strain 1,< 1 mg/L
same,MIC,[1]; Finegoldia magna strain 2,< 1 mg/L
same,MIC,[1]; Finegoldia magna strain 3,1 to 4 mg/L
same,MIC,[1]; Finegoldia magna strain 4,< 1 mg/L
same,MIC,[1]; Finegoldia magna strain 5,1 to 4 mg/L
same,MIC,[1]; Finegoldia magna strain 6,1 to 4 mg/L
same,MIC,[1]; Finegoldia magna strain 7,1 to 4 mg/L
same,MIC,[1]; Finegoldia magna strain 8,1 to 4 mg/L
same,MIC,[1]; Finegoldia magna strain 9,1 to 4 mg/L
same,MIC,[1]; Finegoldia magna strain 10,1 to 4 mg/L
same,MIC,[1]; Finegoldia magna strain 11,1 to 4 mg/L
same,MIC,[1]; Finegoldia magna strain 12,< 1 mg/L
same,MIC,[2]; Prevotella bivia strain 1,1 to 4 mg/L
same,MIC,[2]; Prevotella bivia strain 2,1 to 4 mg/L
same,MIC,[2]; Prevotella bivia strain 3,1 to 4 mg/L
same,MIC,[2]; Prevotella bivia strain 4,1 to 4 mg/L
same,MIC,[2]; Prevotella bivia strain 5,1 to 4 mg/L
same,MIC,[2]; Prevotella bivia strain 6,1 to 4 mg/L
same,MIC,[2]; Prevotella bivia strain 7,1 to 4 mg/L
same,MIC,[2]; Prevotella bivia strain 8,1 to 4 mg/L
same,MIC,[2]; Prevotella bivia strain 9,1 to 4 mg/L
same,MIC,[2]; Prevotella bivia strain 10,1 to 4 mg/L
same,MIC,[3]; Bacteroides fragilis strain 1,< 1 mg/L
same,MIC,[3]; Bacteroides fragilis strain 2,< 1 mg/L
same,MIC,[3]; Bacteroides fragilis strain 3,< 1 mg/L
same,MIC,[3]; Bacteroides fragilis strain 4,< 1 mg/L
same,MIC,[3]; Bacteroides fragilis strain 5,< 1 mg/L
same,MIC,[3]; Bacteroides fragilis strain 6,< 1 mg/L
same,MIC,[3]; Bacteroides fragilis strain 7,< 1 mg/L
same,MIC,[3]; Bacteroides fragilis strain 8,< 1 mg/L
same,MIC,[3]; Bacteroides fragilis strain 9,< 1 mg/L
same,MIC,[3]; Bacteroides fragilis strain 10,< 1 mg/L
same,MIC,[3]; Bacteroides fragilis strain 11,< 1 mg/L
same,MIC,[3]; Bacteroides fragilis strain 12,< 1 mg/L
same,MIC,[4],< 1 mg/L
same,MIC,[5]; Clostridium perfringens strain 1,1 to 4 mg/L
same,MIC,[5]; Clostridium perfringens strain 2,< 1 mg/L
same,MIC,[5]; Clostridium perfringens strain 3,< 1 mg/L
same,MIC,[5]; Clostridium perfringens strain 4,< 1 mg/L
same,MIC,[5]; Clostridium perfringens strain 5,< 1 mg/L
same,MIC,[5]; Clostridium perfringens strain 6,1 to 4 mg/L
same,MIC,[5]; Clostridium perfringens strain 7,< 1 mg/L
same,MIC,[5]; Clostridium perfringens strain 8,< 1 mg/L
same,MIC,[5]; Clostridium perfringens strain 9,< 1 mg/L
same,MIC,[5]; Clostridium perfringens strain 10,< 1 mg/L
same,MIC,[5]; Clostridium perfringens strain 11,1 to 4 mg/L
same,MIC,[6]; Propionibacterium acnes strain 1,16 to 64 mg/L
same,MIC,[6]; Propionibacterium acnes strain 2,16 to 64 mg/L
same,MIC,[6]; Propionibacterium acnes strain 3,16 to 64 mg/L
same,MIC,[6]; Propionibacterium acnes strain 4,16 to 64 mg/L
same,MIC,[6]; Propionibacterium acnes strain 5,16 to 64 mg/L
same,MIC,[6]; Propionibacterium acnes strain 6,16 to 64 mg/L
same,MIC,[6]; Propionibacterium acnes strain 7,16 to 64 mg/L
same,MIC,[6]; Propionibacterium acnes strain 8,16 to 64 mg/L
same,MIC,[6]; Propionibacterium acnes strain 9,16 to 64 mg/L
same,MIC,[6]; Propionibacterium acnes strain 10,16 to 64 mg/L
same,MIC,[6]; Propionibacterium acnes strain 11,16 to 64 mg/L
same,MIC,[6]; Propionibacterium acnes strain 12,16 to 64 mg/L
same,MIC,[7]; Prevotella melaninogenica strain 1,< 1 mg/L
same,MIC,[7]; Prevotella melaninogenica strain 2,< 1 mg/L
same,MIC,[7]; Prevotella melaninogenica strain 3,< 1 mg/L
same,MIC,[7]; Prevotella melaninogenica strain 4,< 1 mg/L
same,MIC,[7]; Prevotella melaninogenica strain 5,< 1 mg/L
same,MIC,[7]; Prevotella melaninogenica strain 6,< 1 mg/L
same,MIC,[7]; Prevotella melaninogenica strain 7,< 1 mg/L
same,MIC,[7]; Prevotella melaninogenica strain 8,< 1 mg/L
same,MIC,[7]; Prevotella melaninogenica strain 9,< 1 mg/L
same,MIC,[7]; Prevotella melaninogenica strain 10,< 1 mg/L
same,MIC,[7]; Prevotella melaninogenica strain 11,< 1 mg/L
same,MIC,[8],1 to 4 mg/L
same,MIC,[9]; Peptostreptococcus anaerobius strain 1,< 1 mg/L
same,MIC,[9]; Peptostreptococcus anaerobius strain 2,< 1 mg/L
same,MIC,[9]; Peptostreptococcus anaerobius strain 3,< 1 mg/L
same,MIC,[9]; Peptostreptococcus anaerobius strain 4,< 1 mg/L
same,MIC,[9]; Peptostreptococcus anaerobius strain 5,< 1 mg/L
same,MIC,[9]; Peptostreptococcus anaerobius strain 6,< 1 mg/L
same,MIC,[9]; Peptostreptococcus anaerobius strain 7,< 1 mg/L
same,MIC,[9]; Peptostreptococcus anaerobius strain 8,< 1 mg/L
same,MIC,[9]; Peptostreptococcus anaerobius strain 9,< 1 mg/L
same,MIC,[9]; Peptostreptococcus anaerobius strain 10,< 1 mg/L
same,MIC,[10]; Parvimonas micra strain 1,1 to 4 mg/L
same,MIC,[10]; Parvimonas micra strain 2,< 1 mg/L
same,MIC,[10]; Parvimonas micra strain 3,< 1 mg/L
same,MIC,[10]; Parvimonas micra strain 4,< 1 mg/L
same,MIC,[10]; Parvimonas micra strain 5,< 1 mg/L
same,MIC,[10]; Parvimonas micra strain 6,< 1 mg/L
same,MIC,[10]; Parvimonas micra strain 7,< 1 mg/L
same,MIC,[10]; Parvimonas micra strain 8,< 1 mg/L
same,MIC,[10]; Parvimonas micra strain 9,< 1 mg/L
same,MIC,[10]; Parvimonas micra strain 10,1 to 4 mg/L
same,MIC,[10]; Parvimonas micra strain 11,< 1 mg/L
same,MIC,[10]; Parvimonas micra strain 12,< 1 mg/L
same,MIC,[11]; Bacteroides thetaiotaomicron strain 1,< 1 mg/L
same,MIC,[11]; Bacteroides thetaiotaomicron strain 2,< 1 mg/L
same,MIC,[11]; Bacteroides thetaiotaomicron strain 3,1 to 4 mg/L
same,MIC,[11]; Bacteroides thetaiotaomicron strain 4,1 to 4 mg/L
same,MIC,[11]; Bacteroides thetaiotaomicron strain 5,1 to 4 mg/L
same,MIC,[11]; Bacteroides thetaiotaomicron strain 6,1 to 4 mg/L
same,MIC,[11]; Bacteroides thetaiotaomicron strain 7,< 1 mg/L
same,MIC,[11]; Bacteroides thetaiotaomicron strain 8,1 to 4 mg/L
same,MIC,[11]; Bacteroides thetaiotaomicron strain 9,< 1 mg/L
same,MIC,[11]; Bacteroides thetaiotaomicron strain 10,1 to 4 mg/L
same,MIC,[11]; Bacteroides thetaiotaomicron strain 11,1 to 4 mg/L
same,MIC,[12],< 1 mg/L
same,MIC,[13]; Peptoniphilus harei strain 1,1 to 4 mg/L
same,MIC,[13]; Peptoniphilus harei strain 2,< 1 mg/L
same,MIC,[13]; Peptoniphilus harei strain 3,< 1 mg/L
same,MIC,[13]; Peptoniphilus harei strain 4,1 to 4 mg/L
same,MIC,[13]; Peptoniphilus harei strain 5,< 1 mg/L
same,MIC,[13]; Peptoniphilus harei strain 6,< 1 mg/L
same,MIC,[13]; Peptoniphilus harei strain 7,< 1 mg/L
same,MIC,[13]; Peptoniphilus harei strain 8,< 1 mg/L
same,MIC,[13]; Peptoniphilus harei strain 9,1 to 4 mg/L
same,MIC,[13]; Peptoniphilus harei strain 10,< 1 mg/L
same,MIC,[13]; Peptoniphilus harei strain 11,< 1 mg/L
same,MIC,[13]; Peptoniphilus harei strain 12,1 to 4 mg/L
